Where a name gives a salt, the structure may show the parent alone.
biological target: T1, Recombinant human VAP-1 SSAO (Homo sapiens, UniProt Q16853); experiment: In vitro inhibition of VAP-1 SSAO activity (coupled colourimetric method); type: biochemical; conditions: not given
T1 sequence (Q16853 1-763): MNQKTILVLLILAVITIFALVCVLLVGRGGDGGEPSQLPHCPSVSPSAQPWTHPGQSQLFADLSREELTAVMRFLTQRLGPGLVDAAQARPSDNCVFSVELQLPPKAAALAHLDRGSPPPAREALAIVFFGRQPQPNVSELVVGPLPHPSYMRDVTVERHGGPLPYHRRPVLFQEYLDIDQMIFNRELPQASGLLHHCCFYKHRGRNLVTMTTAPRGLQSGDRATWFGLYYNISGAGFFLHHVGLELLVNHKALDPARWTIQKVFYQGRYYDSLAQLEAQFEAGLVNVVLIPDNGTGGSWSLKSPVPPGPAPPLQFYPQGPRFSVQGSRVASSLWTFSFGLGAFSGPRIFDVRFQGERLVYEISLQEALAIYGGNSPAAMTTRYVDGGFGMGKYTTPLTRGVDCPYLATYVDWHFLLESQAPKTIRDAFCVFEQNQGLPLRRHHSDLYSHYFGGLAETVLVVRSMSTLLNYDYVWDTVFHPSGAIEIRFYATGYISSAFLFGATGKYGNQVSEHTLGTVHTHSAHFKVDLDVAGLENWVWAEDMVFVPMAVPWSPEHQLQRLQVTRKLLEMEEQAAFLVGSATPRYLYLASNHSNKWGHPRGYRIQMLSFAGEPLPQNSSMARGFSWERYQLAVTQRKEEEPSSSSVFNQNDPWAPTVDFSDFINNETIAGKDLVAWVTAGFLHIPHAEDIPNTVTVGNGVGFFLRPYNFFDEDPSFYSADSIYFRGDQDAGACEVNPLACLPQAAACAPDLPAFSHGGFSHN
Protocol: VAP-1 SSAO activity was measured using the coupled colourimetric method essentially as described for monoamine oxidase and related enzymes (Holt, A., et al., Anal. Biochem. 244:384-392 (1997)). Recombinant human VAP-1 SSAO expressed in Chinese Hamster Ovary (CHO) cells was used as a source of VAP-1 SSAO for activity measurements. […] These cells and their culture have previously been described (Smith, D. J., et al., J. Exp. Med. 188:17-27 (1998)). A cell lysate was prepared by suspending approximately 3.6×10^8 cells in 25 ml lysis buffer (150 mM NaCl, 10 mM Tris-Base pH 7.2, 1.5 mM MgCl2, 1% NP40) and incubating at 4° C. overnight on a rotating table. The lysate was clarified by centrifugation at 18000 g for 5 min at room temperature and the supernatant used directly in the assay. The VAP-1 SSAO assay was performed in 96 well microtitre plates as follows. To each well was added a predetermined amount of inhibitor if required. […] Controls lacked inhibitor. The inhibitor was in a total volume of 20 μl in water. The following reagents were then added. 0.2 M potassium phosphate buffer pH 7.6 to a total reaction volume of 200 μl, 45 μl of freshly made chromogenic solution containing 1 mM 2,4-dichlorophenol, 500 μM 4-aminoantipyrine and 4 U/ml horseradish peroxidase and an amount of CHO cell lysate containing VAP-1 SSAO that caused a change of 0.6 A490 per h. […] The plates were incubated for 30 min at 37° C. and the background absorbance measured at 490 nm using a Wallac Victor II multilabel counter. To initiate the enzyme reaction 20 μl 10 mM benzylamine (final concentration=1 mM) was added and the plate incubated for 1 h at 37° C. The increase in absorbance, reflecting VAP-1 SSAO activity, was measured at 490 nm. Inhibition was presented as percent inhibition compared to control after correcting for background absorbance and IC50 values calculated using GraphPad Prism.

| Compound | Selectivity for VAP-1 SSAO over MAO |
| --- | --- |
| COc1cccc(C(O)CN(C)N)c1 (racemic) [Compound 34] | 157 |

same assay, conditions: VAP-1 SSAO inhibitory activity IC50, lysate of CHO cells expressing recombinant human VAP-1 SSAO; 1 mM benzylamine; 1 h at 37° C.

| Compound | IC50 [nM] |
| --- | --- |
| C[C@@H]([C@H](O)c1ccccc1)N(C)N (relative stereo) [Compound 2, (1R*,2S*)-2-(1-Methylhydrazino)-1-phenyl-1-propanol hydrochloride] | 350 |
| C[C@@H]([C@H](O)c1ccccc1)N(C)N (racemic) [Compound 12] | 290 |
| C[C@@H]([C@H](O)c1ccccc1)N(C)N [Compound 1, (1R,2S)-2-(1-Methylhydrazino)-1-phenyl-1-propanol hydrogenmaleate] | 220 |

same assay, conditions: lysate of CHO cells expressing recombinant human VAP-1 SSAO; 1 mM benzylamine; 1 h at 37° C.; read-out: VAP-1 SSAO inhibitory activity IC50

| Compound | IC50 [nM] |
| --- | --- |
| NN(Cc1ccccc1)C1CCCCC1O (racemic) [Compound 41] | 21900 |
| 2-(1-methylhydrazino)-1-phenylethanol hydrogenmaleate [Compound 6] | 65 |
| NN1Cc2ccccc2CC1CO (racemic) [Compound 46] | > 10000 |
| CCN(N)[C@@H](C)[C@H](O)c1ccccc1 (racemic) [Compound 13] | 1520 |
| CCC[C@@H](NN)[C@@H](O)c1ccccc1 (racemic) [Compound 22] | 1200 |
| COc1cccc(C(CN(C)N)OC)c1 (stereo not shown) [Compound 7, 1-[2-methoxy-2-(m-methoxyphenyl)ethyl]-1-methylhydrazine Hydrogenfumarate] | 410 |
| COc1ccc(C(CN(C)N)OC)cc1 (racemic) [Compound 37] | 420 |
| CN(N)[C@H](c1ccccc1)C(O)c1ccccc1 (stereo in doubt) [Compound 5, (1R*,2S*)-2-(1-methylhydrazino)-1,2-diphenylethanol hydrogemnaleate] | 410 |
| COc1cccc(C(O)CN(C)N)c1 (racemic) [Compound 34] | 280 |
| CCCN(N)C(C)C(O)c1ccccc1 (racemic) [Compound 14] | 129000 |
| CN(N)CC(O)c1ccccc1Cl (racemic) [Compound 29] | 270 |
| C[C@@H]([C@H](O)c1ccccc1)N(N)Cc1ccccc1 (racemic) [Compound 17] | 34000 |
| COc1cc2c(cc1OC)CN(N)C(CO)C2 (racemic) [Compound 47] | > 10000 |
| COc1ccc(CN(N)C(C)C(O)c2ccccc2)cc1 (racemic) [Compound 18] | 2600 |
| CC(C)CN(N)CC(O)c1ccccc1 (racemic) [Compound 24] | 350 |
| CN(N)C(C)(C)C(O)c1ccccc1 (racemic) [Compound 20] | 520 |
| COc1ccc(C(O)CN(C)N)cc1 (stereo not shown) [Compound 9, 2-(1-methylhydrazino)-1-(p-methoxyphenyl)ethanol hydrogenfumarate] | 310 |
| CN(N)[C@@H]1CCCC[C@]1(O)c1ccccc1 (racemic) [Compound 43] | 520 |
| COc1cc2c(cc1OC)C(CO)N(N)CC2 (stereo not shown) [Compound 8, 2-Amino-6,7-dimethoxy-1,2,3,4-tetrahydroisoquinoline-1-methanol hydrochloride] | > 10000 |
| COc1cc2c(cc1OC)C(CCO)N(N)CC2 (racemic) [Compound 45] | 8100 |
| COc1ccc(C(O)CNN)cc1 (racemic) [Compound 36] | 17 |
| NN(Cc1ccccc1)C(CO)Cc1ccccc1 (racemic) [Compound 38] | > 50000 |
| CC[C@@H]([C@H](O)c1ccccc1)N(C)N (racemic) [Compound 21] | 260 |
| CC(C(O)c1ccccc1)N(N)Cc1ccccc1 (racemic) [Compound 16] | 4000 |
| CCC[C@@H]([C@H](O)c1ccccc1)N(C)N (racemic) [Compound 23] | 260 |
| C[C@H]([C@@H](O)c1ccccc1)[N+](C)(C)N (relative stereo) [Compound 4, (1R*,2S*)-1-(2-hydroxy-1-methyl-2-phenylethyl)-1,1-dimethylhydrazinium iodide] | > 50000 |
| C[C@@H]([C@H](O)c1ccccc1)N(N)CC1CC1 (racemic) [Compound 15] | 1380 |
| COc1ccc(C(O)CNN)cc1 (racemic) [Compound 35] | 29 |

same assay, conditions: ratio of total rat MAO IC50 to human VAP-1 SSAO IC50

| Compound | Selectivity for VAP-1 SSAO over MAO |
| --- | --- |
| C[C@@H]([C@H](O)c1ccccc1)N(C)N (relative stereo) [Compound 2, (1R*,2S*)-2-(1-Methylhydrazino)-1-phenyl-1-propanol hydrochloride] | 111 |
| NN(Cc1ccccc1)C1CCCCC1O (racemic) [Compound 41] | 5 |
| C[C@@H]([C@H](O)c1ccccc1)N(C)N (racemic) [Compound 12] | 138 |
| 2-(1-methylhydrazino)-1-phenylethanol hydrogenmaleate [Compound 6] | 137 |
| NN1Cc2ccccc2CC1CO (racemic) [Compound 46] | <61 |
| CCN(N)[C@@H](C)[C@H](O)c1ccccc1 (racemic) [Compound 13] | 16 |
| CCC[C@@H](NN)[C@@H](O)c1ccccc1 (racemic) [Compound 22] | 9 |
| COc1cccc(C(CN(C)N)OC)c1 (stereo not shown) [Compound 7, 1-[2-methoxy-2-(m-methoxyphenyl)ethyl]-1-methylhydrazine Hydrogenfumarate] | 107 |
| COc1ccc(C(CN(C)N)OC)cc1 (racemic) [Compound 37] | 105 |
| CN(N)[C@H](c1ccccc1)C(O)c1ccccc1 (stereo in doubt) [Compound 5, (1R*,2S*)-2-(1-methylhydrazino)-1,2-diphenylethanol hydrogemnaleate] | 132 |
| C[C@@H]([C@H](O)c1ccccc1)N(C)N [Compound 1, (1R,2S)-2-(1-Methylhydrazino)-1-phenyl-1-propanol hydrogenmaleate] | 141 |
| CCCN(N)C(C)C(O)c1ccccc1 (racemic) [Compound 14] | >6 |
| CN(N)CC(O)c1ccccc1Cl (racemic) [Compound 29] | 85 |
| C[C@@H]([C@H](O)c1ccccc1)N(N)Cc1ccccc1 (racemic) [Compound 17] | 6 |
| COc1cc2c(cc1OC)CN(N)C(CO)C2 (racemic) [Compound 47] | <150 |
| COc1ccc(CN(N)C(C)C(O)c2ccccc2)cc1 (racemic) [Compound 18] | 9 |
| CC(C)CN(N)CC(O)c1ccccc1 (racemic) [Compound 24] | 32 |
| CN(N)C(C)(C)C(O)c1ccccc1 (racemic) [Compound 20] | 98 |
| COc1ccc(C(O)CN(C)N)cc1 (stereo not shown) [Compound 9, 2-(1-methylhydrazino)-1-(p-methoxyphenyl)ethanol hydrogenfumarate] | 116 |
| CN(N)[C@@H]1CCCC[C@]1(O)c1ccccc1 (racemic) [Compound 43] | 19 |
| COc1cc2c(cc1OC)C(CO)N(N)CC2 (stereo not shown) [Compound 8, 2-Amino-6,7-dimethoxy-1,2,3,4-tetrahydroisoquinoline-1-methanol hydrochloride] | <8 |
| COc1cc2c(cc1OC)C(CCO)N(N)CC2 (racemic) [Compound 45] | 6 |
| COc1ccc(C(O)CNN)cc1 (racemic) [Compound 36] | 294 |
| NN(Cc1ccccc1)C(CO)Cc1ccccc1 (racemic) [Compound 38] | ≈10 |
| CC[C@@H]([C@H](O)c1ccccc1)N(C)N (racemic) [Compound 21] | 158 |
| CC(C(O)c1ccccc1)N(N)Cc1ccccc1 (racemic) [Compound 16] | 62 |
| CCC[C@@H]([C@H](O)c1ccccc1)N(C)N (racemic) [Compound 23] | 108 |
| C[C@H]([C@@H](O)c1ccccc1)[N+](C)(C)N (relative stereo) [Compound 4, (1R*,2S*)-1-(2-hydroxy-1-methyl-2-phenylethyl)-1,1-dimethylhydrazinium iodide] | ≈10 |
| C[C@@H]([C@H](O)c1ccccc1)N(N)CC1CC1 (racemic) [Compound 15] | 7 |
| COc1ccc(C(O)CNN)cc1 (racemic) [Compound 35] | 207 |

system: Total rat MAO; experiment: Total rat MAO activity (rat liver mitochondrial preparation, colourimetric); type: biochemical; conditions: rat liver mitochondria; 0.5 mM tyramine; 1 h at 37° C.; read-out: Total MAO inhibitory activity IC50
Protocol: Rat MAO was prepared from rat liver by rinsing the 1 g liver sample several times in 14 ml KCl-EDTA-solution to remove all blood. Then 1 g liver sample was homogenised in 4 ml ice-cold potassium phosphate buffer (0.1 M, pH 7.4) with an Ultra-Turrax homogeniser (setting 11 000 rpm, 4×10 s). After centrifugation at 500 g for 10 min at 4° C. the supernatant was carefully withdrawn and was centrifuged at 12 300 g for 15 min at 4° C. The supernatant was discharged and sedimented mitochondria were resuspended in 4 ml fresh phosphate buffer and centrifuged as previously. The mitochondria were suspended in 4 ml phosphate buffer and homogenized with an Ultra-Turrax homogeniser (setting 11 000 rpm, 2×10 s). Mitochondrial preparate was aliquoted and stored at −70° C. Total MAO activity was measured in a similar way as for VAP-1 SSAO except that 2,4-dichlorophenol was replaced by 1 mM vanillic acid. To each well was added a predetermined amount of inhibitor if required. The amount of inhibitor varied in each assay but was generally at a final concentration of between 10 nM and 800 μM. Controls lacked inhibitor. The inhibitor was in a total volume of 20 μl in water. The following reagents were then added. 0.2 M potassium phosphate buffer pH 7.6 for a total reaction volume of 300 μl, 50 μl of fleshly made chromogenic solution (as above) and 50 μl of MAO preparation. The plates were incubated for 30 min at 37° C. and the background absorbance measured at 490 nm using a Wallac Victor II multilabel counter. To initiate the enzyme reaction 20 μl of 5 mM tyramine (final concentration 0.5 mM) was added and the plate incubated for 1 h at 37° C. The increase in absorbance, reflecting MAO activity, was measured at […]. Inhibition was presented as percent inhibition compared to control after correcting for background absorbance and IC50 values calculated using GraphPad Prism. Clorgyline and pargyline (inhibitors of MAO-A and -B respectively) at 0.5 μM were added to some wells as positive controls for MAO inhibition.

| Compound | IC50 [nM] |
| --- | --- |
| 2-(1-methylhydrazino)-1-phenylethanol hydrogenmaleate [Compound 6] | 8900 |
| COc1cccc(C(O)CN(C)N)c1 (racemic) [Compound 34] | 44000 |

— patent US6624202B2, “Inhibitors of copper-containing amine oxidases” (priority 2000, dated 2003)
